In general, IC50 refers to the concentration at which inhibition is half-maximal.

Each structure is given as a SMILES string.

In one test the test system is MKN-74. In words: Cytotoxicity against human MKN74 cells assessed as growth inhibition. Type of test: functional, cell-based.
The subject of the next test is HL-60. The experiment in a line: Cytotoxicity against human HL-60 cells assessed as growth inhibition. It counts as functional, cell-based.
A further test deals with Aspergillus fumigatus. The experiment in a line: Antifungal activity against Aspergillus fumigatus Af293 assessed as growth inhibition. Type of test: functional, organism-based.
The subject of a further test is Staphylococcus aureus. In words: Antibacterial activity against Staphylococcus aureus 209 assessed as growth inhibition. It counts as functional, organism-based.
In a further test the test system is Pyricularia oryzae. In words: Antifungal activity against Pyricularia oryzae kita-1 assessed as growth inhibition. Type of test: functional, organism-based.
Another test relates to T98G. The experiment in a line: Cytotoxicity against human T98G cells assessed as growth inhibition. Type of test: functional, cell-based.
For another test, the system named is HeLa. In words: Cytotoxicity against human HeLa cells assessed as growth inhibition. It counts as functional, cell-based.
The next test has as its system Candida albicans. In words: Antifungal activity against Candida albicans JCM1542 assessed as growth inhibition. Type of test: functional, organism-based.
The test system of test [1] is Plasmodium falciparum. In words: Antimalarial activity against wild-type Plasmodium falcipuram 3D7 assessed as growth inhibition. It counts as functional, organism-based.
The test system of a further test is Escherichia coli. In words: Antibacterial activity against Escherichia coli HO141 assessed as growth inhibition. It counts as functional, organism-based.
For test [2], the system named is Plasmodium falciparum. The experiment in a line: Antimalarial activity against chloroquine-resistant Plasmodium falcipuram K1 assessed as growth inhibition. It counts as functional, organism-based.

Take `C\C=C(/C=C(C)/C=C/C=C/C=C(\C)C(O)[C@]12O[C@H]1[C@@](O)(CCO)NC2=O)C(=O)OC` (some centres not stated): the IC50 with MKN-74, with HL-60, in the test with Aspergillus fumigatus, in the test with Staphylococcus aureus, in the test with Pyricularia oryzae and in the test on T98G was over 70 µM each time. Further, the IC50 with HeLa was over 70 µM; in the test on Candida albicans, over 70 µM; with Plasmodium falciparum [1], 62.1 µM; with Escherichia coli, over 70 µM.
`O=C(N[C@H](CO)[C@H](O)c1ccc([N+](=O)[O-])cc1)C(Cl)Cl` [CHLORAMPHENICOL]: the values for the IC50 with Staphylococcus aureus and in the test on Escherichia coli were 5.4 µM and 4.6 µM, respectively.
Consider `C[C@@H]1CC[C@H]2[C@@H](C)C(=O)O[C@@H]3O[C@@]4(C)CC[C@@H]1[C@]32OO4` [ARTEMISININ], for which, in the test on Plasmodium falciparum [1], the IC50 came to 0.019 µM.
For `C\C=C(/C=C(C)/C=C/C=C/C=C(\C)C(=O)[C@H]1C(=O)N[C@]2(O)CCO[C@H]12)C(=O)O`, the half-maximal inhibitory concentration (IC50) in the test with HL-60, in the test with Aspergillus fumigatus, in the test on Staphylococcus aureus, with Pyricularia oryzae, with HeLa and with Candida albicans was over 70 µM each time. Also, the 50% inhibitory concentration (IC50) was 43.9 µM with Plasmodium falciparum [1] and over 70 µM in the test with Escherichia coli.
As to `C\C=C(/C=C(C)/C=C/C=C/C=C(\C)C(=O)C1C[C@@](O)(CCO)NC1=O)C(=O)OC` (some centres not stated), the IC50 with MKN-74 was over 70 µM; in the test with HL-60, 37.7 µM; in the test with Aspergillus fumigatus it was over 70 µM; in the test with Staphylococcus aureus it was over 70 µM; in the test on Pyricularia oryzae, 6.7 µM; in the test with T98G, over 70 µM. The half-inhibitory concentration (IC50) in the test with HeLa was 21.5 µM; in the test with Candida albicans it was over 70 µM; in the test with Plasmodium falciparum [2], 0.0015 µM; in the test with Plasmodium falciparum [1], 0.0015 µM; in the test with Escherichia coli, over 70 µM.
Turning to `C\C=C(/C=C(C)/C=C/C=C/C=C(\C)C(=O)[C@H]1C(=O)N[C@]2(O)CCO[C@H]12)C(=O)OC`, the IC50 in the test with HL-60 was 17.4 µM; in the test with Aspergillus fumigatus it was over 70 µM; with Staphylococcus aureus, over 70 µM; in the test with Pyricularia oryzae it was over 70 µM; in the test with HeLa, 24.9 µM; with Candida albicans, over 70 µM. Also, the IC50 in the test with Plasmodium falciparum [1] was 0.15 µM; with Escherichia coli, over 70 µM.
For `C[C@@H]1[C@H](O)[C@@H](C)/C=C/C=C/C=C/C=C/C=C/C=C/C=C/[C@H](O[C@@H]2O[C@H](C)[C@@H](O)[C@H](N)[C@@H]2O)C[C@@H]2O[C@](O)(C[C@@H](O)C[C@@H](O)[C@H](O)CC[C@@H](O)C[C@@H](O)CC(=O)O[C@H]1C)C[C@H](O)[C@H]2C(=O)O` [AMPHOTERICIN B], the IC50 is 0.21 µM in the test on Aspergillus fumigatus, 0.16 µM with Pyricularia oryzae and 0.03 µM in the test with Candida albicans.
Regarding `CC(=O)O[C@H]1C(=O)[C@@]2(C)[C@H]([C@H](OC(=O)c3ccccc3)[C@]3(O)C[C@H](OC(=O)[C@H](O)[C@@H](NC(=O)c4ccccc4)c4ccccc4)C(C)=C1C3(C)C)[C@]1(OC(C)=O)CO[C@@H]1C[C@@H]2O` [PACLITAXEL], the IC50 in the test with HL-60 is 0.0022 µM; with T98G it was 8.7 µM; in the test on HeLa, 0.0043 µM.
Consider `C\C=C(/C=C(C)/C=C/C=C/C=C(\C)C(=O)[C@@]1(O)C(=O)N[C@]2(O)CCO[C@H]12)C(=O)OC`, for which the IC50 with HL-60 was over 70 µM; in the test on HeLa, over 70 µM; in the test on Plasmodium falciparum [1] it was 0.67 µM.
In the case of `C\C=C(/C=C(C)/C=C/C=C/C=C(\C)C(=O)[C@]12O[C@H]1[C@@](O)(CCO)NC2=O)C(=O)OC`, the half-inhibitory concentration (IC50) in the test with HL-60 was 15.8 µM; in the test with Aspergillus fumigatus, over 70 µM; in the test with Staphylococcus aureus, over 70 µM; in the test with Pyricularia oryzae, over 70 µM; in the test on HeLa, 14.1 µM; in the test on Candida albicans it was over 70 µM. Further, the IC50 is 1.8 µM in the test on Plasmodium falciparum [1] and over 70 µM in the test with Escherichia coli.
